Laboratory results reported in patent publication US10874670B2, “Substituted fused heteroaromatic compounds as kinase inhibitors and the use thereof” (IMPACT THERAPEUTICS, INC., priority 2017, dated 2020).

What was measured:
ATM enzyme (human) = ATM enzyme (human) (Homo sapiens, UniProt Q13315); experiment: ATM kinase assay (HTRF, GST-cMyc-p53 substrate); assay type: biochemical; settings: for inhibition at 0.01 µM: C 0.01 μm (final concentration of compound); for inhibition at 0.1 µM: C 0.1 μm (final concentration of compound)
ATM enzyme (human), sequence (Q13315 whole entry): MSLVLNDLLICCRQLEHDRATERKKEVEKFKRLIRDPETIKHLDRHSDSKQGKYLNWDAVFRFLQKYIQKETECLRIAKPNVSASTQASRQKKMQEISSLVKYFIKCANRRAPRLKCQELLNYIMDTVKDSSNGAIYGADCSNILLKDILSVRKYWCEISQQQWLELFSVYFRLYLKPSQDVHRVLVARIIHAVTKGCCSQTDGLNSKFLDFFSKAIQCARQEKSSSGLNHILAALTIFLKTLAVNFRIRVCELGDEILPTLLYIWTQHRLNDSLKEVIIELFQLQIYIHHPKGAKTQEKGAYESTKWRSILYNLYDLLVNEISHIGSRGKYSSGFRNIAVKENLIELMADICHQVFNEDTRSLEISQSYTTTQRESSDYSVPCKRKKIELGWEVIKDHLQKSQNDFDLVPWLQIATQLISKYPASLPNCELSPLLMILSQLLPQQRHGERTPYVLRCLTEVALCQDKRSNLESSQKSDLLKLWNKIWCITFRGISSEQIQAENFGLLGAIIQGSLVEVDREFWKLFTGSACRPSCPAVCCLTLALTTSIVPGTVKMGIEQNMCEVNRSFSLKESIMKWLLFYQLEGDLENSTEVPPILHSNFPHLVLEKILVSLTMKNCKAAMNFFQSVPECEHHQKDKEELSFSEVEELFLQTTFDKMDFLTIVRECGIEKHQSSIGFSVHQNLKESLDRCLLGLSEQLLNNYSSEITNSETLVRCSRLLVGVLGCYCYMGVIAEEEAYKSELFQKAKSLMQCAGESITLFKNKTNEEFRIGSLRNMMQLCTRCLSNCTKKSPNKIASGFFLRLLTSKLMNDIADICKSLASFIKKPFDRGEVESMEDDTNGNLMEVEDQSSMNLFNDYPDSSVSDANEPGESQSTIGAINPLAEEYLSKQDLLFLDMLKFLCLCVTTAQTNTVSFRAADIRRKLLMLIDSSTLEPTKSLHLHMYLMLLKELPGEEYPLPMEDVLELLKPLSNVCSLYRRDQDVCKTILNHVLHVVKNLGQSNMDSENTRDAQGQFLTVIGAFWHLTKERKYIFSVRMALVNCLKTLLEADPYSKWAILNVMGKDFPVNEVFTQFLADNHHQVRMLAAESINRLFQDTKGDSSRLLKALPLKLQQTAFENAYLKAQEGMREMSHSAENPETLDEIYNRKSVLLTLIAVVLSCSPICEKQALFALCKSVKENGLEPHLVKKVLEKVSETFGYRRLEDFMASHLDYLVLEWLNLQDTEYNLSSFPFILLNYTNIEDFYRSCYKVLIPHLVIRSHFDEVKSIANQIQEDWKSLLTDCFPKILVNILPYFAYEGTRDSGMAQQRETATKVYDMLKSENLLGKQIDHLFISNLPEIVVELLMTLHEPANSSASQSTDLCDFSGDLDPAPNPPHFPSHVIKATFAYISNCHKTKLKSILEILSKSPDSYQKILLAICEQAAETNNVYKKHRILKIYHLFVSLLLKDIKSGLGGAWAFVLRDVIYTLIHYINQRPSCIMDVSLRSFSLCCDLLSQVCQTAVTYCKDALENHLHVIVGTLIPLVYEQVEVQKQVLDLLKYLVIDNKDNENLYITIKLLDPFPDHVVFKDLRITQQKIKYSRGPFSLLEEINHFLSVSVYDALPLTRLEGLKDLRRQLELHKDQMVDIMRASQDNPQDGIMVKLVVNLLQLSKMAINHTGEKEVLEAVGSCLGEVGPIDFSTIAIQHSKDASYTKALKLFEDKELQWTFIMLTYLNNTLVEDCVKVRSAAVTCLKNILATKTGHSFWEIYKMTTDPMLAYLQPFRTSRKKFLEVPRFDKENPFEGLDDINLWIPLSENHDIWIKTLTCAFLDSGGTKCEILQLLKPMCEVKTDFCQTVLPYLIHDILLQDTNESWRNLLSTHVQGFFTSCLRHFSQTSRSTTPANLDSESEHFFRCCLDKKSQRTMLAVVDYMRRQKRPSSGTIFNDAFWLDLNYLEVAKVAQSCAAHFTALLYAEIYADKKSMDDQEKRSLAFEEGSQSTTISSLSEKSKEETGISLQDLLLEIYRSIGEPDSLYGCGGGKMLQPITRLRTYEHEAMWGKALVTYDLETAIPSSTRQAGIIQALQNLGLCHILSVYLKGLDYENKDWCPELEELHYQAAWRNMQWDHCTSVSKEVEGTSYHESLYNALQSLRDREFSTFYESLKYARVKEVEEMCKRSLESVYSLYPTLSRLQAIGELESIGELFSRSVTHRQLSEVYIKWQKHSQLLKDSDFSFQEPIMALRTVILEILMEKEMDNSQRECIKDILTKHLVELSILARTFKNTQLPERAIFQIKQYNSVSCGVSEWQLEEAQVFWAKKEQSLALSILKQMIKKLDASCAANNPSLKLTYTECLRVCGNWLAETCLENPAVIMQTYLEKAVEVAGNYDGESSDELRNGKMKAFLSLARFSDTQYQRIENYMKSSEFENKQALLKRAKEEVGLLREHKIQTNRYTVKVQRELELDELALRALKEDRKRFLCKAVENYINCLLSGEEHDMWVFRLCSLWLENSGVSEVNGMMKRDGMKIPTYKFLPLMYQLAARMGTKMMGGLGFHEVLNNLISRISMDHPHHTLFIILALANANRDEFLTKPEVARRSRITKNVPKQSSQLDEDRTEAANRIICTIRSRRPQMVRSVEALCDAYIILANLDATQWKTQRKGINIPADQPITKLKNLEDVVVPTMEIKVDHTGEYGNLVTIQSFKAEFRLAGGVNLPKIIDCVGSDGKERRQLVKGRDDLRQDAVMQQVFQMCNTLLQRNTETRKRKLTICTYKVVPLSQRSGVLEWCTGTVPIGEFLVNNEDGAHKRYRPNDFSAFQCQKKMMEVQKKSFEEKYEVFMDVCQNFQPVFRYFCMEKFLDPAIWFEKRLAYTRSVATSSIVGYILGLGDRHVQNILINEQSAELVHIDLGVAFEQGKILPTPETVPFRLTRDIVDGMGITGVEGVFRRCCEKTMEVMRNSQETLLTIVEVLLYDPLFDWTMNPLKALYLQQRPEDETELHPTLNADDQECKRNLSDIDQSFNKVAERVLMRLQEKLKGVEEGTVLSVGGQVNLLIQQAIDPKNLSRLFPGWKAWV
Description: In Vitro Inhibition of ATM by N,N-dimethyl-3-(4-(1-(tetrahydro-2H-pyran-4-yl)-[1,2,4]triazolo[4,3-a]quinoxalin-8-yl)phenoxy)propan-1-amine and its Analogues was Determined by ATM Kinase Assay
The reaction was initiated by the addition of a Mg/ATP mixture and incubation for 30 minutes at room temperature, the reaction was quenched by the addition of a stop solution containing EDTA. Finally, the detection buffer containing the d2-labeled anti-GST monoclonal antibody and the europium-labeled anti-phospho p53 (Ser15) antibody was added. The plate was then read in time resolved fluorescence mode and the homogeneous time resolved fluorescence (HTRF) signal was determined according to the equation: HTRF=10000×(Em665nm/Em620nm). Each compound sample was repeated in duplicate. The experiment negative control was all components except of the ATM enzyme and the positive control contained all components. All reactions were quenched by adding EDTA.
ATM kinase inhibition was detected by using the method described above. The curve equation for calculating IC50 value is as follows:
[formula] • wherein, C is the concentration of compound and D is the slope factor.

[1] = test system: human colon cancer cell SW620; experiment: MTT assay, growth of SW620 cells, compounds combined with CPT-11; assay type: cell-based; settings: for IC50: combined with CPT-11 (205 nM medium), 5 days, MTT
Description: Inhibitory effects of N,N-dimethyl-3-(4-(1-(tetrahydro-2H-pyran-4-yl)-[1,2,4]triazolo[4,3-a]quinoxalin-8-yl)phenoxy)propan-1-amine and its Analogues Combined with CPT-11 on the Growth of Human Colon Cancer Cell SW620 were Determined by MTT Assay
(§1) SW620 cells were digested by trypsinase, centrifuged at 800 rpm for 5 minutes, the supernatant was discarded, resuspended with fresh medium (RPMI 1640 medium+10% FBS) and counted. The cells were seeded into 96-well cell culture plate with appropriate cell density and incubated overnight in a 37° C. 5% CO2 incubator. The stock solutions of the tested compound and the reference compound AZD0156 were serially diluted to 8 concentrations by DMSO at the ratios of 1:3 and 1:10, respectively, the first concentration was 10 μM or 1 μM, and the last concentration was negative control of DMSO (0 μM, the final concentration of DMSO was 1%). 5 μL of each concentration was added to 120 μL of medium (25 times diluted) and mixed by shaking. The overnight cells were taken and the culture medium was removed, 195 μL of fresh medium containing 205 nM CPT-11 was added to each well, and 5 μL of diluted medium containing the corresponding concentration of the tested sample was added respectively, and the culture plate was then placed in the 5% CO2 cell culture incubator at 37° C. for 5 days. After removing the original solution, 100 pt of fresh serum-free DMEM medium containing MTT (0.5 mg/mL) was added to each well, the culture was continued. After 4 hours, the original solution was removed, 100 μL of DMSO was added into each well, the 96-well plates were shaken away from light for 10 minutes and placed in a multi-function reader to read the absorbance at the wavelength of 552/630/690 nm. GraphPad Prism 6.0 was used to analyze the data. The inhibitory activity of compounds on cell proliferation was plotted based on cell viability and compound concentration. The IC50 value was fitted by a sigmoidal dose response curve equation Y=100/(1+10^(Log C−Log IC50)), where C was the concentration of compound.
Table 3 summarizes the inhibitory effects of compounds combined with CPT-11 on the growth of human colon cancer cell SW620 (IC50).

[2] = test system: human breast cancer cell MDA-MB-468; experiment: MTT assay, growth of MDA-MB-468 cells; assay type: cell-based; settings: for IC50: 7 days, MTT
Description: Inhibitory Effects of N,N-dimethyl-3-(4-(1-(tetrahydro-2H-pyran-4-yl)-[1,2,4]triazolo[4,3-a]quinoxalin-8-yl)phenoxy)propan-1-amine and its Analogues on the Growth of Human Breast Cancer Cell MDA-MB-468 were Determined by MTT Assay
as §1, with “MDA-MB-468 cells” for “SW620 cells”, “1:10, respectively:” for “1:10, respectively,”, “was 100” for “was 10”, “medium” for “medium containing 205 nM CPT-11”, “for 7 days (On the fourth day, the medium containing drugs was removed and fresh medium containing drugs was added for continuous cultivation).” for “for 5 days.”, “100 μL” for “100 pt”
Table 4 summarizes the inhibitory effects of compounds on the growth of human breast cancer cell MDA-MB-468 (IC50).

[3] = Homo sapiens, MDA-MB-468, 168 h
[4] = 0.5 h, read-out: Inh (%) of ATM kinase
[5] = 0.5 h, C 1 μm (final concentration of compound), read-out: Inh (%) of ATM kinase

Row | Compound | IC50 ([1]; Homo sapiens, SW-620, 120 h) [nM] | IC50 [2, 3] [nM] | inhibition at 0.01 µM (ATM enzyme (human); [4]) [%] | inhibition at 0.1 µM (ATM enzyme (human); [4]) [%] | inhibition at 1 µM (ATM enzyme (human); [5]) [%] | also measured
1 | CN(C)CCCOc1ccc(-c2ccc3ncc4c(c3c2)n(C2CCOCC2)c(=O)n4C)cn1 [AZD0156, reference compound] |  |  |  |  |  | Inh (%) of ATM kinase (ATM enzyme (human); C 1 μm (final concentration of compound)): 100%; IC50 [1]: 10 nM; IC50 [2]: 10.9 nM
2 | CN(C)CCCOc1ccc(-c2ccc3ncc4nnc(C5CCOCC5)n4c3c2)cc1 [Example 4, N,N-dimethyl-3-(4-(1-(tetrahydro-2H-pyran-4-yl)-[1,2,4]triazolo[4,3-a]quinoxalin-8-yl)phenoxy)propan-1-amine] | 328 | 950 |  |  |  | IC50 (ATM enzyme (human); 10-concentration dilution series, read-out: IC50, inhibition of ATM kinase): 9 nM; inhibition at 10 µM (ATM enzyme (human); 0.5 h, C 10 μm (final concentration of compound), read-out: Inh (%) of ATM kinase): 100%; inhibitory effect on ATM kinase (in words) (ATM enzyme (human); ATM kinase (human) assay): good inhibitory effect
3 | CN(C)CCCOc1ccc(-c2ccc3ncc4nnc(C5CCOCC5)n4c3c2)nc1 [Example 5, N,N-dimethyl-3-((6-(1-(tetrahydro-2H-pyran-4-yl)-[1,2,4]triazolo[4,3-a]quinoxalin-8-yl)pyridin-3-yl)oxy)propan-1-amine] | > 100000 | > 100000 | 7 | 47 | 96 | 
4 | CN(C)C1CCN(c2ccc(-c3ccc4ncc5nnc(C6CCOCC6)n5c4c3)cc2)CC1 [Example 12, N,N-dimethyl-1-(4-(1-(tetrahydro-2H-pyran-4-yl)-[1,2,4]triazolo[4,3-a]quinoxalin-8-yl)phenyl)piperidin-4-amine] | 173 | 236 | 50 | 93 | 100 | 
5 | CN(C)C1CCC(c2ccc(-c3ccc4ncc5nnc(C6CCOCC6)n5c4c3)cc2)CC1 (stereo not drawn) [Example 18, N,N-dimethyl-4-(4-(1-(tetrahydro-2H-pyran-4-yl)-[1,2,4]triazolo[4,3-a]quinoxalin-8-yl)phenyl)cyclohexan-1-amine] | > 100000 | > 100000 |  |  | 34 | 
6 | CN(C)CCCOc1ccc(-c2ccc3ncc4nnc(N5CCN(C)CC5)n4c3c2)cc1 [Example 22, N,N-dimethyl-3-(4-(1-(4-methylpiperazin-1-yl)-[1,2,4]triazolo[4,3-a]quinoxalin-8-yl)phenoxy)propan-1-amine] | 413 | 422 |  |  | 100 | 
7 | C[C@@H]1CN(c2nnc3cnc4ccc(-c5ccc(OCCCN(C)C)cc5)cc4n23)C[C@H](C)N1C [Example 23, N,N-dimethyl-3-(4-(1-((3S,5R)-3,4,5-trimethylpiperazin-1-yl)-[1,2,4]triazolo[4,3-a]quinoxalin-8-yl)phenoxy)propan-1-amine] | 65.1 | 54.1 | 81 | 99 | 100 | inhibition at 0.001 µM (ATM enzyme (human); 0.5 h, C 0.001 μm (final concentration of compound), read-out: Inh (%) of ATM kinase): 60%; inhibitory effect on the growth of SW620 cells (in words) ([1]; MTT assay, combined with CPT-11): inhibited the growth of SW620 cell; inhibitory effect on the growth of MDA-MB-468 cells (in words) ([2]; MTT assay): inhibited the growth of MDA-MB-468 cell
8 | CN(C)CCCOc1ccc(-c2ccc3ncc4nnc(-c5c[nH]cn5)n4c3c2)cc1 [Example 29, N,N-dimethyl-3-(4-(1-(1H-imidazol-4-yl)-[1,2,4]triazolo[4,3-a]quinoxalin-8-yl)phenoxy)propan-1-amine] | 1210 | 860 | 34 | 81 | 97 | 
9 | CN(C)CCCOc1ccc(-c2cc3c(cn2)ncc2nnc(C4CCOCC4)n23)cc1 [Example 30, N,N-dimethyl-3-(4-(1-(tetrahydro-2H-pyran-4-yl)pyrido[3,4-e][1,2,4]triazolo[4,3-a]pyrazin-8-yl)phenoxy)propan-1-amine] | > 10000 | > 10000 |  |  | 14 | 
10 | CN(C)C1CCN(c2ccc(-c3ccc4ncc5nnc(N6CCC(N(C)C)CC6)n5c4n3)cc2)CC1 [Example 90, 1-(2-(4-(4-(dimethylamino)piperidin-1-yl)phenyl)pyrido[3,2-e][1,2,4]triazolo[4,3-a]pyrazin-9-yl)-N,N-dimethylpiperidin-4-amine] | 981 | > 10000 |  |  |  | 

The next lines start with results.

Row | IC50 ([1]; Homo sapiens, SW-620, 120 h) [nM] | IC50 [2, 3] [nM] | inhibition at 0.01 µM (ATM enzyme (human); [4]) [%] | inhibition at 0.1 µM (ATM enzyme (human); [4]) [%] | inhibition at 1 µM (ATM enzyme (human); [5]) [%] | Compound | also measured
11 | > 100000 | > 100000 |  |  | 64 | CN(C)CCCN(C)c1ccc(-c2ccc3ncc4nnc(C5CCOCC5)n4c3c2)cc1 [Example 11, N-(3-(dimethylamino)propyl)-N-methyl-4-(1-(tetrahydro-2H-pyran-4-yl)-[1,2,4]triazolo[4,3-a]quinoxalin-8-yl)aniline] | 
12 | 144 | 122 | 79 | 99 | 100 | CN(C)CCCOc1ccc(-c2ccc3ncc4nnc(N5CCCCC5)n4c3c2)cc1 [Example 20, N,N-dimethyl-3-(4-(1-(piperidin-1-yl)-[1,2,4]triazolo[4,3-a]quinoxalin-8-yl)phenoxy)propan-1-amine] | 
13 | 334 | 372 |  |  | 100 | CN(C)CCCOc1ccc(-c2ccc3ncc4nnc(N5CCOCC5)n4c3c2)cc1 [Example 21, N,N-dimethyl-3-(4-(1-morpholino-[1,2,4]triazolo[4,3-a]quinoxalin-8-yl)phenoxy)propan-1-amine] | 
14 | 470 | 452 | 43 | 84 | 99 | CN(C)CCCOc1ccc(-c2ccc3ncc4nnc(CN5CCOCC5)n4c3c2)cc1 [Example 27, N,N-dimethyl-3-(4-(1-(morpholinomethyl)-[1,2,4]triazolo[4,3-a]quinoxalin-8-yl)phenoxy)propan-1-amine] | 
15 | 262 | 335 | 51 | 92 | 100 | CN(C)CCCOc1ccc(-c2ccc3ncc4nnc(C5CCOCC5)n4c3n2)cc1 [Example 31, N,N-dimethyl-3-(4-(9-(tetrahydro-2H-pyran-4-yl)pyrido[3,2-e][1,2,4]triazolo[4,3-a]pyrazin-2-yl)phenoxy)propan-1-amine] | 
